Patent US10414811B2, “Protease-resistant lipidated GLP-1 analogs” (MEDIMMUNE LIMITED, priority 2015, dated 2019)
Where two headings read alike, the source gives them in different places. Numbered stars: 1 amine (or outer) side, 2 acyl side, 3 side chain; on linkers, the order of the positions; unused ones are H or OH. Square brackets hold non-standard residues; d marks the D form. Side chains are listed from the residue outwards. Peptide text beside a SMILES is read from it. * marks the point of attachment. γGlu = O=C(O)[C@H](CCC(=O)[*:2])N[*:1]; αMeF = C[C@](N)(Cc1ccccc1)C(=O)O; αMeK = C[C@](N)(CCCCN)C(=O)O; Lauroyl = CCCCCCCCCCCC(=O)*; αMeS = C[C@](N)(CO)C(=O)O; AEEA = NCCOCCOCC(=O)O; Aib = CC(C)(N)C(=O)O

Columns and labels:
Format in all cases: cell-based
[1] = target: T1, human GLP-1 receptor (GLP-1R) (Homo sapiens, UniProt P43220); assay: cAMP assay, human GLP-1R cells
T1 construct: expressed in transfected cells
T1 sequence (P43220 24-463): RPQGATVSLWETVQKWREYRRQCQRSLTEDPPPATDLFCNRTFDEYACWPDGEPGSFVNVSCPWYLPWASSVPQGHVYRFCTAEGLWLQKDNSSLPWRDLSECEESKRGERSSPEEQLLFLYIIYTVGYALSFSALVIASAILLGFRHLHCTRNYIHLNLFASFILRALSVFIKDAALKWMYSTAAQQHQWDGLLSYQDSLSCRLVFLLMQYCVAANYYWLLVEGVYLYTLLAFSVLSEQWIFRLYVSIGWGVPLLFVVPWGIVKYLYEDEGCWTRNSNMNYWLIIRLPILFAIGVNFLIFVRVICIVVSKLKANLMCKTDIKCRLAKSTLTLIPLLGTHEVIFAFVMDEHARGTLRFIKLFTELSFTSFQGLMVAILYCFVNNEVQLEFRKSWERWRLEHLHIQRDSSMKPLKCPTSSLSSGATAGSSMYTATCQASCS
Procedure, shortened: (§1)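 Peptide-stimulated cAMP measured by two-step HTRF after a 30 min room-temperature incubation with receptor-expressing cells (hGLP-1R, hGIPR at 1×10^5 cells/ml; hGCGR at 2×10^5 cells/ml). Duplicate dilutions; EC50 from 4-parameter logistic fit of % Delta F.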

[2] = target: T2, human glucagon receptor (GCGR) (Homo sapiens, UniProt P47871); assay: cAMP assay, human GCGR cells
T2 construct: expressed in transfected cells
T2 sequence (P47871 26-477): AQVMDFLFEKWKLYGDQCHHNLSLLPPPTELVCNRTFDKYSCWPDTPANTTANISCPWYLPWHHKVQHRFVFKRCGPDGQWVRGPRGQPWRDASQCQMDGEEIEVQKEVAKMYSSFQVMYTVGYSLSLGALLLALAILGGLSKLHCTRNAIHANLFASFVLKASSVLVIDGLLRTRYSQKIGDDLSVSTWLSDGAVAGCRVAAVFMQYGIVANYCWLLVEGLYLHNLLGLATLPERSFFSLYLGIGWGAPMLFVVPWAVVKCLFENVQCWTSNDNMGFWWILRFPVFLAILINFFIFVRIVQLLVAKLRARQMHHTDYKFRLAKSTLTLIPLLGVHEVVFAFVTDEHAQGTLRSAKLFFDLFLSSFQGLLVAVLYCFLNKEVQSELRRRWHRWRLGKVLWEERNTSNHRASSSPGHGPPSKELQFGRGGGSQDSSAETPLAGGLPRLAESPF
Procedure, shortened: as §1

[3] = target: T3, human glucose-dependent insulinotropic peptide receptor (GIPR) (Homo sapiens, UniProt P48546); assay: cAMP assay, human GIPR cells
T3 construct: expressed in transfected cells
T3 sequence (P48546 22-466): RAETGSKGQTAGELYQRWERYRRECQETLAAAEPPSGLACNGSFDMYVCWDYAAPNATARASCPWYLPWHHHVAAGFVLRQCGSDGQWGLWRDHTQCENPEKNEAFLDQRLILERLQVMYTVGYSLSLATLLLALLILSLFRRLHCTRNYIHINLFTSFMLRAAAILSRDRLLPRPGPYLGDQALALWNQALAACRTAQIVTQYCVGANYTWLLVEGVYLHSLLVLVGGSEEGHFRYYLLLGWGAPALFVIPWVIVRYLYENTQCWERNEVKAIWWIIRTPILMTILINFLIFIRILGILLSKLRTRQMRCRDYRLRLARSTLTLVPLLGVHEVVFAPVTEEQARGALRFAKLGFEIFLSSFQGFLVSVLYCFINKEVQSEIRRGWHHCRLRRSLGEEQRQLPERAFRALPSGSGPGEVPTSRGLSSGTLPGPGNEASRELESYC
Procedure, shortened: as §1

GLP-1R (INS1e assay) = target: T4, GLP-1R (INS1e assay) (Rattus norvegicus, UniProt P32301); assay: INS1e assay, cAMP activity at GLP-1R
T4 construct: endogenous in cells; host or cells: INS-1E cells
T4 sequence (P32301 22-463): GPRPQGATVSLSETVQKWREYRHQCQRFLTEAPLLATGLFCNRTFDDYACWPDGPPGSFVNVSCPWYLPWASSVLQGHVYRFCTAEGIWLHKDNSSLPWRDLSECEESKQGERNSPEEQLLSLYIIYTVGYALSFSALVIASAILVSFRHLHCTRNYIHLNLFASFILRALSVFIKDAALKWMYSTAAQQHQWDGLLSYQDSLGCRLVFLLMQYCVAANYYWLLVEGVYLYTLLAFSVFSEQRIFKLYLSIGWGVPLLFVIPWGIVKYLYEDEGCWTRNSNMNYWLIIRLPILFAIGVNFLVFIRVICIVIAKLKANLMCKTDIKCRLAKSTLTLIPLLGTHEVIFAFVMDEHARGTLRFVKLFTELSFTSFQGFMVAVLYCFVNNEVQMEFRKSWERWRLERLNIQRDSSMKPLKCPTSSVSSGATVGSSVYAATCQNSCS
Procedure, shortened: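 cAMP was quantified by two-step HTRF, using anti-cAMP cryptate donor and cAMP-d2 acceptor, each diluted 1/20 in conjugate and lysis buffer. EC50 values of the synthetic peptides were derived from the cAMP readout.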

[4] = cAMP assay, first determination (n1), read-out: Primary assay EC50 Gluc-R (n1)
[5] = cAMP assay, first determination (n1), read-out: Primary assay EC50 GIP-R (n1)
[6] = mono-lipidated peptides, mean of n1 and n2, read-out: INS1e assay EC50 Mean pM GLP-1R
[7] = mono-lipidated peptides, replicate n1, read-out: INS1e assay EC50 GLP-1R n1
[8] = mono-lipidated peptides, replicate n2, read-out: INS1e assay EC50 GLP-1R n2

EC50 ([1]; cAMP assay, first determination (n1), read-out: Primary assay EC50 GLP-1R n1) | EC50 ([1]; cAMP assay, second determination (n2), read-out: Primary assay EC50 GLP-1R n2) | EC50 ([1]; mean of n1 and n2, read-out: Mean pM GLP-1R) | EC50 [2, 4] | EC50 [3, 5] | EC50 (GLP-1R (INS1e assay); [6]) | EC50 (GLP-1R (INS1e assay); [7]) | EC50 (GLP-1R (INS1e assay); [8]) | EC50 ([2]; cAMP assay, second determination (n2), read-out: Primary assay EC50 Gluc-R (n2)) | EC50 ([3]; cAMP assay, second determination (n2), read-out: Primary assay EC50 GIP-R (n2)) | EC50 ([2]; tris-lipidated peptides, second replicate, read-out: Primary assay EC50 Gluc-R (n2)) | EC50 ([3]; tris-lipidated peptides, first replicate, read-out: Primary assay EC50 GIP-R (n1)) | EC50 (GLP-1R (INS1e assay); tris-lipidated peptides, mean of n1 and n2, read-out: INS1e assay EC50 Mean pM GLP-1R) | EC50 (GLP-1R (INS1e assay); tris-lipidated peptides, replicate n1, read-out: INS1e assay EC50 GLP-1R n1) | EC50 (GLP-1R (INS1e assay); tris-lipidated peptides, replicate n2, read-out: INS1e assay EC50 GLP-1R n2) | SMILES
170 pM | 260 pM | 216 pM | ≥ 26 nM | ≥ 26 nM | 32400 pM | 22100 pM | 42600 pM | – | – | – | – | – | – | – | CC[C@H](C)[C@H](NC(=O)[C@](C)(Cc1ccccc1)NC(=O)[C@H](CCC(=O)O)NC(=O)[C@H](CCCCNC(=O)COCCOCCNC(=O)COCCOCCNC(=O)CC[C@H](NC(=O)CCCCCCCCCCCCCCCCC(=O)O)C(=O)O)NC(=O)[C@H](C)NC(=O)[C@H](C)NC(=O)[C@H](CCC(=O)O)NC(=O)CNC(=O)[C@H](CCC(=O)O)NC(=O)[C@H](CC(C)C)NC(=O)[C@](C)(Cc1ccccc1)NC(=O)[C@H](CO)NC(=O)[C@](C)(CO)NC(=O)[C@@H](NC(=O)[C@H](CC(=O)O)NC(=O)[C@H](CO)NC(=O)[C@@H](NC(=O)[C@](C)(Cc1ccccc1)NC(=O)[C@H](CO)NC(=O)CNC(=O)[C@H](CCC(=O)O)NC(=O)C(C)(C)NC(=O)[C@@H](N)Cc1c[nH]cn1)[C@@H](C)O)C(C)C)C(=O)N[C@@H](C)C(=O)N[C@@](C)(Cc1ccccc1)C(=O)N[C@H](C(=O)N[C@H](C(=O)N[C@@H](CCCCN)C(=O)NCC(=O)NCC(N)=O)C(C)C)C(C)C [compound 50]
– | – | – | ≥ 26 nM | ≥ 26 nM | 1110 pM | 1610 pM | 610 pM | ≥ 25.6 nM | ≥ 25.6 nM | – | – | – | – | – | CC[C@H](C)[C@H](NC(=O)[C@](C)(Cc1ccccc1)NC(=O)[C@H](CCC(=O)O)NC(=O)[C@](C)(CCCCN)NC(=O)[C@H](C)NC(=O)[C@H](C)NC(=O)[C@H](CCC(=O)O)NC(=O)CNC(=O)[C@H](CCC(=O)O)NC(=O)[C@H](CC(C)C)NC(=O)[C@H](CCCCNC(=O)COCCOCCNC(=O)COCCOCCNC(=O)CC[C@H](NC(=O)CCCCCCCCCCCCCCCCC(=O)O)C(=O)O)NC(=O)[C@H](CO)NC(=O)[C@](C)(CO)NC(=O)[C@@H](NC(=O)[C@H](CC(=O)O)NC(=O)[C@H](CO)NC(=O)[C@@H](NC(=O)[C@](C)(Cc1ccccc1)NC(=O)[C@H](CO)NC(=O)CNC(=O)[C@H](CCC(=O)O)NC(=O)C(C)(C)NC(=O)[C@@H](N)Cc1c[nH]cn1)[C@@H](C)O)C(C)C)C(=O)N[C@@H](C)C(=O)N[C@@](C)(Cc1ccccc1)C(=O)N[C@H](C(=O)N[C@H](C(=O)N[C@@](C)(CCCCN)C(=O)NCC(=O)NCC(N)=O)C(C)C)C(C)C [compound 116]
– | – | – | – | – | – | – | – | – | – | 20 nM | 20 nM | 6530 pM | 9370 pM | 3690 pM | CCCCCCCCCCCC(=O)N[C@@H](CCC(=O)NCCOCCOCC(=O)NCCOCCOCC(=O)NCCCC[C@H](NC(=O)CNC(=O)[C@H](CCC(=O)O)NC(=O)[C@H](CC(C)C)NC(=O)[C@H](CCCCNC(=O)COCCOCCNC(=O)COCCOCCNC(=O)CC[C@H](NC(=O)CCCCCCCCCCC)C(=O)O)NC(=O)[C@H](CO)NC(=O)[C@](C)(CO)NC(=O)[C@@H](NC(=O)[C@H](CC(=O)O)NC(=O)[C@H](CO)NC(=O)[C@@H](NC(=O)[C@](C)(Cc1ccccc1)NC(=O)[C@H](CO)NC(=O)CNC(=O)[C@H](CCC(=O)O)NC(=O)C(C)(C)NC(=O)[C@@H](N)Cc1c[nH]cn1)[C@@H](C)O)C(C)C)C(=O)N[C@@H](C)C(=O)N[C@@H](C)C(=O)N[C@@](C)(CCCCN)C(=O)N[C@@H](CCC(=O)O)C(=O)N[C@@H](Cc1ccccc1)C(=O)N[C@H](C(=O)N[C@@H](C)C(=O)N[C@@H](Cc1ccccc1)C(=O)N[C@@H](CCCCNC(=O)COCCOCCNC(=O)COCCOCCNC(=O)CC[C@H](NC(=O)CCCCCCCCCCC)C(=O)O)C(=O)N[C@H](C(=O)N[C@@H](CCC(=O)O)C(=O)NCC(=O)NCC(N)=O)C(C)C)[C@@H](C)CC)C(=O)O [compound 480] (H-H[Aib]EGS[αMeF]TSDV[αMeS]SK([AEEA-AEEA-γGlu-Lauroyl])LEGK([AEEA-AEEA-γGlu-Lauroyl])AA[αMeK]EFIAFK([AEEA-AEEA-γGlu-Lauroyl])VEGG-NH2)
